Structures are written as SMILES.

In this assay the target is Muscarinic acetylcholine receptor M4 (Homo sapiens) (UniProt P08173). The assay can be described thus: human M4 positive allosteric modulators, dose response, cell-based, calcium flux, Millipore GPCR Profiler (AID 449765). As to conditions: M4-expressing cells, calcium flux fluorescence. A general note: A change in cytosolic calcium serves as a functional read-out for many receptors and channels.
Sequence of Muscarinic acetylcholine receptor M4 (Homo sapiens) (P08173 whole entry, looked up): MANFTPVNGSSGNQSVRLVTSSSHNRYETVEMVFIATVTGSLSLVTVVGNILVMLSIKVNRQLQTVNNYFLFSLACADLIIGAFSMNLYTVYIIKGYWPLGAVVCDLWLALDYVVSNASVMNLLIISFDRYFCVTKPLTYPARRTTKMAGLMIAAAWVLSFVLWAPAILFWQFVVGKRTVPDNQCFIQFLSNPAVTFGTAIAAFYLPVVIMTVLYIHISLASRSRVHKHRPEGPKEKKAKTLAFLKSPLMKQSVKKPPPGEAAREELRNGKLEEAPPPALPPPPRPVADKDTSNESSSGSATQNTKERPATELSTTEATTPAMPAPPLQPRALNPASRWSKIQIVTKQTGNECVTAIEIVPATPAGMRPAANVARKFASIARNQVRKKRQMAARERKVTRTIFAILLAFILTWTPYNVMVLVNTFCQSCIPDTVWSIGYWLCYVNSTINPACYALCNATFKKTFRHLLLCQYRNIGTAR
For orientation: EC50 means the concentration giving half of the maximal effect. In the case of `Cc1cc(OCCN2CCOCC2)nc2sc(C(=O)NC(C)(C)C)c(N)c12`, the EC50 was 192 nM.

In the case of `Cc1cc(OCc2ccncc2)nc2sc(C(=O)NCc3cccc(F)c3F)c(N)c12`, the EC50 was 95.3 nM. The value for `COc1ccc(CNC(=O)c2sc3nc(OCc4ccncc4)cc(C)c3c2N)cc1` was 100 nM. For the molecule `Cc1cc(OCc2ccncc2)nc2sc(C(=O)NCc3cc(F)ccc3F)c(N)c12`, the EC50 was 183 nM.

The values above are taken from PubChem BioAssay AID449765 (Vanderbilt High Throughput Screening Facility, 2010).
